Laboratory results taken from patent US20240239854A1, “ANTIMICROBIAL PEPTIDES AND MODIFICATIONS THEREOF” (Donald Danforth Plant Science Center, priority 2022, published 2024).
Values after ≈ are worked out from the molar mass of the structure shown. Positions of bridges follow the written chain, without caps; N, C: chain ends. Non-standard residues stand in square brackets, D forms with d. Residues, ends and D or L forms follow the SMILES beside them. No end group written: not given here. Dab = NCC[C@H](N)C(=O)O

Columns and labels:
Candida glabrata = experiment: Antifungal MIC in RPMI medium; settings: RPMI medium rich in cations
F. oxysporum = experiment: Antifungal MIC assay in SFM culture media (Example 1); format: cell-based; settings: in vitro, low cationic conditions; F. oxysporum
F. graminearum = settings: in vitro, low cationic conditions; F. graminearum
B. cinerea [1] = settings: for Antifungal activity relative to the wild-type GMA4C_AC control: in vitro, low cationic conditions
Candida auris = experiment: Antifungal MIC in RPMI medium; settings: RPMI medium rich in cations
P. capsici = experiment: Antifungal MIC assay in SFM culture media (Example 1); format: cell-based; settings: in vitro, low cationic conditions
B. cinerea [2] = experiment: Semi-in planta drop inoculation assay on detached leaves of N. benthamiana, gray mold (Example 4); format: in vivo; settings: detached N. benthamiana leaves; for Reduction of gray mold disease symptoms (lesion sizes): peptide 1.5, 3 and 6 μM, 48 h after inoculation
Cercospora sojina = experiment: 96-well plate antifungal MIC, resazurin cell viability (Example 4); format: cell-based; settings: Table 19; unit not given, peptide concentrations in μM
Botrytis cinerea T-4 = settings: for MIC (μM) SFM: Table 18, SFM; for MIC (μM) (SFM + 2 mM CaCl2): Table 18, SFM + 2 mM CaCl2; for MIC (μM) (SFM + 100 mM KCl): Table 18, SFM + 100 mM KCl; for MIC (μM) (SFM + 100 mM NaCl): Table 18, SFM + 100 mM NaCl
[3] = tested on: Colletotrichum gloeosporioides; experiment: 96-well plate antifungal MIC, resazurin cell viability (Example 4); format: cell-based; settings: Table 19; unit not given, peptide concentrations in μM
Alternaria alternata = experiment: as above; format: cell-based; settings: Table 19; unit not given, peptide concentrations in μM
Botrytis cinerea T4 = format: cell-based
[4] = tested on: Fusarium graminearum PH-1; format: cell-based; settings: MIC Day 1; 96-well plate, resazurin cell viability
B. cinerea [5] = experiment: Pepper - Botrytis cinerea in planta spray assay, preventative and curative; format: in vivo; settings: pepper plants
[6] = tested on: Zymoseptoria tritici IPO323; format: cell-based

| Molecule | Antifungal activity relative to the wild-type GMA4C_AC control (F. oxysporum) | Antifungal activity relative to the wild-type GMA4C_AC control (F. graminearum) | Antifungal activity relative to the wild-type GMA4C_AC control (B. cinerea [1]; B. cinerea) | Antifungal activity relative to the wild-type GMA4C_AC control (P. capsici) | In vitro antifungal activity (MIC) Cercospora sojina (Cercospora sojina) | MIC (μM) SFM (Botrytis cinerea T-4) [µM] | MIC (μM) (SFM + 2 mM CaCl2) (Botrytis cinerea T-4) [µM] | MIC (μM) (SFM + 100 mM KCl) (Botrytis cinerea T-4) [µM] | MIC (μM) (SFM + 100 mM NaCl) (Botrytis cinerea T-4) [µM] | In vitro antifungal activity (MIC) Colletotrichum gloeosporioides [3] | In vitro antifungal activity (MIC) Alternaria alternata (Alternaria alternata) | other results |
| --- | --- | --- | --- | --- | --- | --- | --- | --- | --- | --- | --- | --- |
| CC[C@H](C)[C@H](NC(=O)[C@H](CCCNC(=N)N)NC(=O)[C@@H](NC(=O)[C@@H](NC(=O)[C@H](Cc1ccccc1)NC(=O)[C@@H](NC(=O)[C@H](CCCNC(=N)N)NC(=O)[C@H](CCCNC(=N)N)NC(=O)[C@H](CCCNC(=N)N)NC(=O)[C@H](Cc1ccccc1)NC(=O)CNC(=O)[C@H](CCCNC(=N)N)NC(=O)[C@H](CS)NC(=O)[C@H](CCCNC(=N)N)NC(=O)CNC(=O)CN)C(C)C)C(C)C)[C@@H](C)O)C(=O)N[C@@H](CS)C(N)=O [GMA4C_V3A] (H-GGRCRGFRRRVFVTRIC-NH2; N-terminus assumed) | equivalent | equivalent | equivalent | equivalent | – | – | – | – | – | – | – | Antifungal activity against C. glabrata (Candida glabrata): show antifungal activity; B. cinerea MIC (B. cinerea [1]): 1.5 µM; MIC (μM) Botrytis cinerea (B. cinerea [1]): 3 µM (≈ 6.12 µg/mL); MIC Values (μM) against B. cinerea (B. cinerea [1]): 3 µM (≈ 6.12 µg/mL); SFM + 2 mM CaCl2 MIC (B. cinerea [1]): >6 µM; SFM + 100 mM KCl MIC (B. cinerea [1]): >6 µM; SFM + 100 mM NaCl MIC (B. cinerea [1]): 1.5 to 3 µM; SFM MIC (B. cinerea [1]): 3 µM; Antifungal activity against C. auris (Candida auris): show antifungal activity |
| N=C(N)NCCC[C@H](NC(=O)CNC(=O)[C@@H](N)Cc1ccccc1)C(=O)N[C@@H](CS)C(=O)N[C@@H](CCCNC(=N)N)C(=O)NCC(=O)N[C@@H](Cc1ccccc1)C(=O)N[C@@H](CCCNC(=N)N)C(=O)N[C@@H](CCCNC(=N)N)C(=O)N[C@@H](CCCNC(=N)N)C(=O)N[C@@H](CS)C(=O)N[C@@H](Cc1ccccc1)C(=O)N[C@@H](CS)C(=O)N[C@@H](Cc1c[nH]c2ccccc12)C(=O)N[C@@H](CCCNC(=N)N)C(=O)N[C@@H](Cc1c[nH]c2ccccc12)C(=O)N[C@@H](CS)C(N)=O [GMA4C_V4A] (H-FGRCRGFRRRCFCWRWC-NH2; N-terminus assumed) | equivalent | equivalent | equivalent | equivalent | – | – | – | – | – | – | – | Potency relative to GMA4C_AC in presence of cations (B. cinerea [1]; B. cinerea, 100 mM NaCl or 100 mM KCl): 2 fold; Fungal growth inhibition at 6 μM (B. cinerea [1]; B. cinerea, in presence of 2 mM CaCl2, peptide 6 μM): inhibit fungal growth |
| NCC[C@H](NC(=O)CNC(=O)[C@@H](N)Cc1ccccc1)C(=O)N[C@@H](CS)C(=O)N[C@@H](CCN)C(=O)NCC(=O)N[C@@H](Cc1ccccc1)C(=O)N[C@@H](CCN)C(=O)N[C@@H](CCN)C(=O)N[C@@H](CCN)C(=O)N[C@@H](CS)C(=O)N[C@@H](Cc1ccccc1)C(=O)N[C@@H](CS)C(=O)N[C@@H](Cc1c[nH]c2ccccc12)C(=O)N[C@@H](CCN)C(=O)N[C@@H](Cc1c[nH]c2ccccc12)C(=O)N[C@@H](CS)C(N)=O [GMA4C_V5A, FG(Dab)C(Dab)GF(Dab)(Dab)(Dab)CFCW(Dab)WC-NH2] (H-FG[Dab]C[Dab]GF[Dab][Dab][Dab]CFCW[Dab]WC-NH2; N-terminus assumed) | equivalent | equivalent | equivalent | equivalent | – | – | – | – | – | – | – | – |
| CC[C@H](C)[C@@H]1NC(=O)[C@H](CCCNC(=N)N)NC(=O)[C@H]([C@@H](C)O)NC(=O)[C@H](Cc2ccccc2)NC(=O)[C@H](Cc2c[nH]c3ccccc23)NC(=O)[C@H](Cc2ccccc2)NC(=O)[C@H](CCCNC(=N)N)NC(=O)[C@H](CCCNC(=N)N)NC(=O)[C@H](CC(C)C)NC(=O)[C@H](Cc2ccccc2)NC(=O)CNC(=O)[C@H](CCCCN)NC(=O)[C@@H](NC(=O)[C@H](CCCNC(=N)N)NC(=O)CNC(=O)CN)CSSC[C@@H](C(N)=O)NC1=O [GMA4C_V9] (H-GGRCKGFLRRFWFTRIC-NH2; disulfide 4-17; N-terminus assumed) | – | – | – | – | 6 | 3 (≈ 6.3 µg/mL) | 12 | 6 to 12 | 3 | >12 | >12 | Reduction of gray mold disease symptoms (lesion sizes) (B. cinerea [2]): effective in reducing gray mold disease symptoms |
| CC[C@H](C)[C@@H]1NC(=O)[C@H](CCCNC(=N)N)NC(=O)[C@H]([C@@H](C)O)NC(=O)[C@H](Cc2c[nH]c3ccccc23)NC(=O)[C@H](Cc2ccc(O)cc2)NC(=O)[C@H](Cc2c[nH]c3ccccc23)NC(=O)[C@H](CCCNC(=N)N)NC(=O)[C@H](CCCNC(=N)N)NC(=O)[C@H](CCCNC(=N)N)NC(=O)[C@H](Cc2ccccc2)NC(=O)CNC(=O)[C@H](CCCCN)NC(=O)[C@@H](NC(=O)[C@H](CCCNC(=N)N)NC(=O)CNC(=O)CN)CSSC[C@@H](C(N)=O)NC1=O [GMA4C_V10] (H-GGRCKGFRRRWYWTRIC-NH2; disulfide 4-17; N-terminus assumed) | – | – | – | – | 6 | 3 (≈ 6.6 µg/mL) | 3 | 3 to 6 | 3 | >12 | >12 | Reduction of gray mold symptoms at low concentrations (B. cinerea [2]; peptide 1.5 μM and 3 μM): more effective in reducing the symptoms of gray mold than GMA4C_V9; Reduction of gray mold disease symptoms (lesion sizes) (B. cinerea [2]): effective in reducing gray mold disease symptoms |
| C[C@H](NC(=O)CN)C(=O)N[C@H]1CSSC[C@@H](C(N)=O)NC(=O)[C@H](CCCCN)NC(=O)[C@H](CCCCN)NC(=O)[C@H](Cc2ccc(O)cc2)NC(=O)[C@H](Cc2c[nH]c3ccccc23)NC(=O)[C@H](Cc2ccccc2)NC(=O)[C@H](Cc2c[nH]c3ccccc23)NC(=O)[C@H](C)NC(=O)[C@H](Cc2ccccc2)NC(=O)CNC(=O)[C@H](Cc2ccccc2)NC(=O)CNC(=O)[C@H](CCC(N)=O)NC(=O)[C@H](CCCNC(=N)N)NC(=O)[C@H](Cc2c[nH]cn2)NC1=O [GMA5CA_V3] (H-GACHRQGFGFAWFWYKKC-NH2; disulfide 3-18; N-terminus assumed) | – | – | – | – | 6 | 3 (≈ 6.57 µg/mL) | >12 | >12 | >12 | >12 | 3 | – |
| C[C@H](NC(=O)CN)C(=O)N[C@H]1CSSC[C@@H](C(N)=O)NC(=O)[C@H](CCCCN)NC(=O)[C@H](CCCCN)NC(=O)[C@H](Cc2ccc(O)cc2)NC(=O)[C@H](Cc2ccccc2)NC(=O)[C@H](Cc2ccccc2)NC(=O)[C@H](Cc2ccccc2)NC(=O)[C@H](C)NC(=O)[C@H](Cc2ccccc2)NC(=O)CNC(=O)[C@H](Cc2ccccc2)NC(=O)CNC(=O)[C@H](CCC(N)=O)NC(=O)[C@H](CCCNC(=N)N)NC(=O)[C@H](Cc2c[nH]cn2)NC1=O [GMA5CA_V4] (H-GACHRQGFGFAFFFYKKC-NH2; disulfide 3-18; N-terminus assumed) | – | – | – | – | 6 | 3 (≈ 6.33 µg/mL) | >12 | >12 | >12 | >12 | 3 | – |
| C[C@H](NC(=O)CN)C(=O)N[C@@H](CS)C(=O)N[C@@H](Cc1c[nH]cn1)C(=O)N[C@@H](CCCNC(=N)N)C(=O)N[C@@H](CCC(N)=O)C(=O)NCC(=O)N[C@@H](Cc1ccccc1)C(=O)NCC(=O)N[C@@H](Cc1ccccc1)C(=O)N[C@@H](C)C(=O)N[C@@H](CS)C(=O)N[C@@H](Cc1ccccc1)C(=O)N[C@@H](CS)C(=O)N[C@@H](Cc1ccc(O)cc1)C(=O)N[C@@H](CCCCN)C(=O)N[C@@H](CCCCN)C(=O)N[C@@H](CS)C(N)=O [GMA5CA_WT] (H-GACHRQGFGFACFCYKKC-NH2) | – | – | – | – | 12 | – | – | – | – | >12 | 6 | – |
| GRCRGFRRRCFCTTHC-NH2 (cysteine pairing not given here) [GMA4AC] | – | – | – | – | >12 | – | – | – | – | >12 | >12 | – |
| PD122.1.1: Setaria italica wild-type defensin SEQ ID NO: 715 with an N-terminal alanine, expressed in Pichia pastoris (RRCVSQSHKFVGSCMRKSNCQHVCQTEGFPWGECRFHGGLLRRCFCNKLC; N-terminal alanine; listed as Setaria italica) | – | – | – | – | – | – | – | – | – | – | – | B. cinerea T4 MIC Day1 (Botrytis cinerea T4): 0.75 µM; F. graminearum PH-1 MIC Day1 [4]: 1.5 µM; Curative protection against gray mold disease (B. cinerea [5]; 24 μM spray 24 hours after B. cinerea spores, 5 dpi): reduction of gray mold disease symptoms; Preventative protection against gray mold disease (B. cinerea [5]; 24 μM spray 24 hours before B. cinerea spores, 96 hpi): reduction of gray mold disease symptoms; Z. tritici IPO323 MIC Day 1 [6]: 0.75 µM; Z. tritici IPO323 MIC Day 7 [6]: 2.5 µM; Z. tritici IPO323 MIC Day 14 [6]: 3 µM |
